Values of other authors in patent US20190160050A1, “SMALL MOLECULE INHIBITION FOR PREVENTING OR TREATING FIBROTIC DISEASES” (THE REGENTS OF THE UNIVERSITY OF CALIFORNIA, priority 2016, published 2019).
Each block holds one compound with its values, some of them ahead of it.

What was measured:
JNK = details: read-out: IC50 as competitive inhibitor of JNK
Akt/PKB = details: read-out: IC50 (Akt/PKB inhibitor)
[1] = target: vascular endothelial growth factor receptor 2 (Homo sapiens, UniProt P35968)
Src = Src (Homo sapiens, UniProt P12931)
c-fms = c-fms (Homo sapiens, UniProt P07333); details: read-out: IC50 for c-fms tyrosine kinase
Lck = Lck (Homo sapiens, UniProt P06239)
Lck, sequence (P06239 whole entry, species assumed): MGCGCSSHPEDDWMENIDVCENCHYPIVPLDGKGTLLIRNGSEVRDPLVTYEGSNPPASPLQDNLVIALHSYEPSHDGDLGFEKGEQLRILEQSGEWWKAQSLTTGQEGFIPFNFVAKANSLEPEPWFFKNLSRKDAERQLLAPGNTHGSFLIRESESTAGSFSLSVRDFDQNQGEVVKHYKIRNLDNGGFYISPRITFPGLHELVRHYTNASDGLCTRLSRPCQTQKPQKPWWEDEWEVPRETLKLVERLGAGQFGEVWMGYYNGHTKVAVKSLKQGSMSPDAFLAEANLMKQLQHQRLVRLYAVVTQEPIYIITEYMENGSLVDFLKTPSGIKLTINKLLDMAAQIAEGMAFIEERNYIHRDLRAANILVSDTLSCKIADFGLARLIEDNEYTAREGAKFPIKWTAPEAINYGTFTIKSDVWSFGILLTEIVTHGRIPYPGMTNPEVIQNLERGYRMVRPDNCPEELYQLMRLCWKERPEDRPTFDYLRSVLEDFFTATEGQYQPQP

c-fms, sequence (P07333 20-972): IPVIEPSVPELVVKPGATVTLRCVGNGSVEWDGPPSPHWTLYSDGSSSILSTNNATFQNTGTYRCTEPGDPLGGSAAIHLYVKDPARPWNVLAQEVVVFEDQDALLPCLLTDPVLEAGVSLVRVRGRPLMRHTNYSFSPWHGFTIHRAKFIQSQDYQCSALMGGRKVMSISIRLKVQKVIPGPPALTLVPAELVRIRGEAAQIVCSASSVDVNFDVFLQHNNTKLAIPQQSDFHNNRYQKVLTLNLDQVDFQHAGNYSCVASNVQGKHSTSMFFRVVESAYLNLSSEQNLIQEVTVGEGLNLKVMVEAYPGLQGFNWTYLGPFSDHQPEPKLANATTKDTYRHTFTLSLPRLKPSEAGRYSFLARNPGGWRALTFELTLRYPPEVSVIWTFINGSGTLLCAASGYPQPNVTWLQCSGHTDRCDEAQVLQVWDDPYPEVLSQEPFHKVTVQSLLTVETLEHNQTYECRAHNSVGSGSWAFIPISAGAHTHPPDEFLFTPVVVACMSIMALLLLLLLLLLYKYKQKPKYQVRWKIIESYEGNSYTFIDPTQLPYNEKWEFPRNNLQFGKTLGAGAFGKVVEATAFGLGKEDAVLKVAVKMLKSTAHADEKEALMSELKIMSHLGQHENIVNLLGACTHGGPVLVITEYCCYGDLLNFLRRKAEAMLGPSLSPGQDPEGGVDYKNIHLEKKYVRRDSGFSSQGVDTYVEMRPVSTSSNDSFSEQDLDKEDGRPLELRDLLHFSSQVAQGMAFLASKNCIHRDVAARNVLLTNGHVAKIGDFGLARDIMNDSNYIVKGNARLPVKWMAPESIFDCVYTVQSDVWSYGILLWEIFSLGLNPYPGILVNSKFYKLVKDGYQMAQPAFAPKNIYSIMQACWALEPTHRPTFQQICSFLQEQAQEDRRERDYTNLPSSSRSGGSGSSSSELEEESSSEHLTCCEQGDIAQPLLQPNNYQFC
vascular endothelial growth factor receptor 2, sequence (P35968 20-1356, species assumed): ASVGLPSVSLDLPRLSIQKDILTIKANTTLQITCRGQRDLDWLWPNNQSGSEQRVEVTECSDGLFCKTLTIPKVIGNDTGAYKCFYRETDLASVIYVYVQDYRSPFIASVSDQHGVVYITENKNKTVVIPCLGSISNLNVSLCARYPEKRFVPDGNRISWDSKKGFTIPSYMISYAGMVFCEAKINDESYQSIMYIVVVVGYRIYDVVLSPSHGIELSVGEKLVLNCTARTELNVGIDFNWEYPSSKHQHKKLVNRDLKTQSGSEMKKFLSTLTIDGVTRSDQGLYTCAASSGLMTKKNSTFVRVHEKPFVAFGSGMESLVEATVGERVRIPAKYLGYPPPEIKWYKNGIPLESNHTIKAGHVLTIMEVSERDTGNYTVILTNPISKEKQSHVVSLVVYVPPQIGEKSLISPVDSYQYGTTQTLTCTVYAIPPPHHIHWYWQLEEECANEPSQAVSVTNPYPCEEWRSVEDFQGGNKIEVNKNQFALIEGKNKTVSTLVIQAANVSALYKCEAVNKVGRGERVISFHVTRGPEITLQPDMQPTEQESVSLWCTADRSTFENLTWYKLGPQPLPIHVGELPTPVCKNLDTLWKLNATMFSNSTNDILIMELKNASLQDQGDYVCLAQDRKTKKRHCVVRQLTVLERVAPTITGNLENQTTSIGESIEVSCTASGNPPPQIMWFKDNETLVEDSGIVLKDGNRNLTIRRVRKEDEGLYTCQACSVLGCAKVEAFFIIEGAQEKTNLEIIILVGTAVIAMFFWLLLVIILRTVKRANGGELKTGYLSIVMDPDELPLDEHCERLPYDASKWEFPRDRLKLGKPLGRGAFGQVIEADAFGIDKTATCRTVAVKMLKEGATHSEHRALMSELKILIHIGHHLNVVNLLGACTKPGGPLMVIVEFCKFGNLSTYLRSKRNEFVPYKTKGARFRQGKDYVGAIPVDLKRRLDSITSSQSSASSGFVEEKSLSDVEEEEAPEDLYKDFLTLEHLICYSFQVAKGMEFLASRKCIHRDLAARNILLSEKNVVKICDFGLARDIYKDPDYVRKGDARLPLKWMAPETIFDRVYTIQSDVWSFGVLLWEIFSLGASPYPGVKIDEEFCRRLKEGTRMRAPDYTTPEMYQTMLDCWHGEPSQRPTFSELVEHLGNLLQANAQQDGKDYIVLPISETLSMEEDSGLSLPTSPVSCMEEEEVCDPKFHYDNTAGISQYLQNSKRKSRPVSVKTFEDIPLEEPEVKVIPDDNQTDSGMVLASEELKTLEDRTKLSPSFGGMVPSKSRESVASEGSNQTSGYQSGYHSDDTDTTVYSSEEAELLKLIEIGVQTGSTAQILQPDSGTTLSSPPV
Src, sequence (P12931 whole entry, species assumed): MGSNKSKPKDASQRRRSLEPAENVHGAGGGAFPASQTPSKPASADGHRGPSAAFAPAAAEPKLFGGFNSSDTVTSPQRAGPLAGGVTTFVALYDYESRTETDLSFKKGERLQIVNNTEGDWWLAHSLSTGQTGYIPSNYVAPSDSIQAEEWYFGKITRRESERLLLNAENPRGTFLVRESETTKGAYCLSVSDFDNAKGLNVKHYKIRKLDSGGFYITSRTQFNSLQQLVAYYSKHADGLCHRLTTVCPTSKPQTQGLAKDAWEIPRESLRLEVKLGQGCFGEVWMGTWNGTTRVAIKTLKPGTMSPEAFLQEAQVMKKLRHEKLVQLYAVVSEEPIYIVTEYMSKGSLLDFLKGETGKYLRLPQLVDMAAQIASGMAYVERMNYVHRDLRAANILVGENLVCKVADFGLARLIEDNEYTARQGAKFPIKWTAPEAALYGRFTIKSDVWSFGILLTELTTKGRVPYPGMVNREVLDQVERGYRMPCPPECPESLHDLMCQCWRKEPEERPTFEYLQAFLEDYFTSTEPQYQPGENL

- IC50 (JNK): 0.28 µM
SMILES: O=c1[nH]nc(Sc2ncc([N+](=O)[O-])s2)n1-c1ccc2c(c1)OCCO2 [BI 78D3, 4-(2,3-dihydro-1,4-benzodioxin-6-yl)-2,4-dihydro-5-[(5-nitro-2-thiazolyl)thio]-3H-1,2,4-triazol-3-one]

SMILES: NC(=S)N/N=C/c1coc2ccccc2c1=O.[Cl][Cu][Cl] [FPA 124]
- IC50 (Akt/PKB): 0.1 µM

- IC50 [1]: 0.32 µM
- IC50 (Src): 0.044 µM
- IC50 (c-fms): 30 µM
- IC50 (Lck): 0.088 µM
SMILES: COc1cc2ncnc(Nc3ccc(Oc4ccccc4)cc3)c2cc1OC [Src Inhibitor-1, 4-(4′-Phenoxyanilino)-6,7-dimethoxyquinazoline, 6,7-Dimethoxy-N-(4-phenoxyphenyl)-4-quinazolinamine]
